This note sets out measurements from patent US20250261639A1, “ZEALACTONE DERIVATIVES AS PLANT GROWTH REGULATORS” (SYNGENTA CROP PROTECTION AG, priority 2020, published 2025).

pIC50: −log10 of the molar value.

Experiment [1] deals with Corn seeds (var. NK Falkone). Kind of experiment: Corn seed germination under cold stress conditions. As to conditions: Zea mays, 15° C., 60% Relative Humidity; for change in vivo at 250 µM: read-out: increase of the slope of the curve at Tso (uniformity of germination) compared to untreated control; for percent reduction of T50 germination time vs untreated control at 250 µM: read-out: reduction of the Tso value (time taken for 50% germination; speed of germination) in comparison with untreated control. It is filed as in vivo. As for the experimental part:
Method: Corn seeds (var. NK Falkone, Syngenta Seeds SAS, St. Sauveur, France) were sorted by size using a sieve to eliminate round seeds. The corn seeds were placed in 24 well plates (1 seed per well, each plate was considered as one experimental unit or replicate). Germination was initiated by the addition of 250 μL of distilled water containing 0.5% DMSO per well (and the tested the substance at the given concentration). 8 replicates (i.e., 8 plates) were used for each treatment characterization. Plates were sealed using seal foil (Polyolefin Art. Nr. 900320) from HJ-BIOANALYTIK. All plates were placed in a climatic chamber at 15° C. with 60% Relative Humidity. The experiment was laid out in a completely randomized design.
Germination was followed over time by taking photographs at different time points. Image analysis was performed automatically with a macro which was developed using the Image J software. A kinetic analysis of germination was carried out by fitting a trend curve. Three parameters were calculated from the trend curve: the Tso (time taken for 50% germination; speed of germination); the slope of the curve (the uniformity of germination) and the plateau (the total percentage of germinated seeds).
The treatments with a given compound were performed at 4 concentrations 2, 10, 50, and 250 μM.

Experiment [2] concerns Corn leaf discs (variety Multitop). Kind of experiment: Dark induced senescence of corn leaf. As to conditions: Zea mays, foliar, 192 h; leaf discs in the dark, 23° C., 75% humidity, 8 days, 0.5% DMSO; read-out: IC50 (concentration at which 50% senescence was achieved). As for the experimental part: It is known that strigolactones regulate (accelerate) leaf senescence, potentially through D14 receptor signaling. It is also known that senescence is an important process allowing reallocation of nutrients. Compounds of formula (I) were tested in a corn leaf dark induced senescence assay and compared to untreated control.
Corn plants of variety Multitop were grown in a greenhouse with relative 75% humidity and at 23-25° C. for 6 weeks. 1.4 cm diameter leaf discs were placed into 24-well plates containing a test compounds in a concentration gradient (100 μM-0.0001 μM) at a final concentration of 0.5% DMSO. Each concentration was tested in 12 replicates. Plates were sealed with seal foil. The foil was pierced to provide gas exchange in each well. The plates were placed into the completely dark climatic chamber. Plates were incubated in the chamber with 75% humidity and at 23° C. for 8 days. On days 0, 5, 6, 7 and 8 photographs were taken of each plate, and image analysis conducted with a macro developed using the ImageJ software. The image analysis was used to determine the concentration at which 50% senescence was achieved (IC50). The lower the value, the higher senescence induction potency.

`COC(=O)C(/C=C/C1CCC(F)(F)CC1)=C/OC1C=C(C)C(=O)O1` (centres unmarked) [Compound P-2, methyl (E,2E)-4-(4,4-difluorocyclohexyl)-2-[(4-methyl-5-oxo-2H-furan-2-yl)oxymethylene]but-3-enoate]: in experiment [1], the change in vivo at 250 µM was > 50% and the percent reduction of T50 germination time vs untreated control at 250 µM was > 5%. Further, the pIC50 in experiment [2] was > 5.52.

Take `COC(=O)C(/C=C/C1CCCCC1)=C/OC1OC(=O)C(C)=C1C` (centres unmarked) [Compound P-3, methyl (E,2E)-4-cyclohexyl-2-[(3,4-dimethyl-5-oxo-2H-furan-2-yl)oxymethylene]but-3-enoate]: in experiment [1], the change in vivo at 250 µM is > 50% and the percent reduction of T50 germination time vs untreated control at 250 µM was > 5%.

`COC(=O)C(/C=C/C12CC3CC(CC(C3)C1)C2)=C/OC1C=C(C)C(=O)O1` (centres unmarked) [Compound P-4, methyl (E,2E)-4-(1-adamantyl)-2-[(4-methyl-5-oxo-2H-furan-2-yl)oxymethylene]but-3-enoate]: the percent reduction of T50 germination time vs untreated control at 250 µM in experiment [1] was > 5%. Moreover, in experiment [2], the pIC50 was > 5.52.

As to `COC(=O)C(/C=C/C1(C)CCCC1)=C/OC1C=C(C)C(=O)O1` (centres unmarked) [Compound P-6, methyl (E,2E)-4-(1-methylcyclopentyl)-2-[(4-methyl-5-oxo-2H-furan-2-yl)oxymethylene]but-3-enoate], in experiment [1], the change in vivo at 250 µM was > 50% and the percent reduction of T50 germination time vs untreated control at 250 µM is > 5%. The pIC50 in experiment [2] was > 5.52.

For `COC(=O)C(/C=C/C1(C)CC1)=C/OC1C=C(C)C(=O)O1` (centres unmarked) [Compound P-7, methyl (E,2E)-4-(1-methylcyclopropyl)-2-[(4-methyl-5-oxo-2H-furan-2-yl)oxymethylene]but-3-enoate], the pIC50 in experiment [2] is > 5.52.

Take `COC(=O)/C=C/C(=C\OC1C=C(C)C(=O)O1)C(=O)OC` (centres unmarked) [Compound P-8, dimethyl (E,4E)-4-[(4-methyl-5-oxo-2H-furan-2-yl)oxymethylene]pent-2-enedioate]: in experiment [1], the change in vivo at 250 µM was > 50% and the percent reduction of T50 germination time vs untreated control at 250 µM was > 5%. For the same compound, the pIC50 in experiment [2] is > 5.52.

With `COC(=O)/C(C=C(C)C)=C/OC1C=C(C)C(=O)O1` (centres unmarked) [Compound P-9, methyl (2E)-4-methyl-2-[(4-methyl-5-oxo-2H-furan-2-yl)oxymethylene]pent-3-enoate], in experiment [1], the change in vivo at 250 µM was > 50% and the percent reduction of T50 germination time vs untreated control at 250 µM is > 5%.

For `COC(=O)C(/C=C/C(C)(C)C)=C/OC1OC(=O)C(C)=C1C` (centres unmarked) [Compound P-10, methyl (E,2E)-2-[(3,4-dimethyl-5-oxo-2H-furan-2-yl)oxymethylene]-5,5-dimethyl-hex-3-enoate], in experiment [1], the change in vivo at 250 µM is > 50% and the percent reduction of T50 germination time vs untreated control at 250 µM was > 5%.

In the case of `COC(=O)C(/C=C/C(C)(C)OC)=C/OC1C=C(C)C(=O)O1` (centres unmarked) [Compound P-12, methyl (E,2E)-5-methoxy-5-methyl-2-[(4-methyl-5-oxo-2H-furan-2-yl)oxymethylene]hex-3-enoate], in experiment [1], the change in vivo at 250 µM is > 50%. Further, the pIC50 in experiment [2] is > 5.52.

As to `C=C(C)C1(/C=C/C(=C\OC2C=C(C)C(=O)O2)C(=O)OC)C(=O)CC1(C)C` (centres unmarked) [Compound P-15, methyl (E,2E)-4-(1-isopropenyl-2,2-dimethyl-4-oxo-cyclobutyl)-2-[(4-methyl-5-oxo-2H-furan-2-yl)oxymethylene]but-3-enoate], in experiment [1], the change in vivo at 250 µM was > 50% and the percent reduction of T50 germination time vs untreated control at 250 µM is > 5%. For the same compound, in experiment [2], the pIC50 was > 5.52.

For the compound `COC(=O)C(/C=C/C(C)(C)C#N)=C/OC1C=C(C)C(=O)O1` (centres unmarked) [Compound P-16, methyl (E,2E)-5-cyano-5-methyl-2-[(4-methyl-5-oxo-2H-furan-2-yl)oxymethylene]hex-3-enoate], the pIC50 in experiment [2] was > 5.52.

For the compound `COC(=O)C(/C=C/C(C)(C)N(C)C(C)=O)=C/OC1C=C(C)C(=O)O1` (centres unmarked) [Compound P-17, methyl (E,2E)-5-[acetyl(methyl)amino]-5-methyl-2-[(4-methyl-5-oxo-2H-furan-2-yl)oxymethylene]hex-3-enoate], the pIC50 in experiment [2] was > 5.52.

Consider `COC(=O)C(/C=C/C(C)(C)C(=O)OC)=C/OC1C=C(C)C(=O)O1` (centres unmarked) [Compound P-19, dimethyl (E,5E)-2,2-dimethyl-5-[(4-methyl-5-oxo-2H-furan-2-yl)oxymethylene]hex-3-enedioate], for which, in experiment [1], the change in vivo at 250 µM is > 50% and the percent reduction of T50 germination time vs untreated control at 250 µM was > 5%. The pIC50 in experiment [2] was > 5.52.

On to `COC(=O)C(/C=C/C(C)(C)C(=O)N(C)C)=C/OC1C=C(C)C(=O)O1` (centres unmarked) [Compound P-20, methyl (E,2E)-6-(dimethylamino)-5,5-dimethyl-2-[(4-methyl-5-oxo-2H-furan-2-yl)oxymethylene]-6-oxo-hex-3-enoate], for which, in experiment [2], the pIC50 was > 5.52.
